From the supplement of paper PMC13380429

Columns and labels:
Details in all cases: 72 h
[1] = test system: Caco-2; test: relative viability EC50 (midpoint between 100% and the lowest measured viability); higher = less toxic
[2] = test system: Calu-3; test: as above
[3] = test system: HepG2; test: as above
[4] = test system: U2OS; test: as above
[5] = test system: Vero E6; test: as above
[6] = test system: Caco-2; test: cell viability relative to DMSO; higher = less toxic
[7] = test system: Calu-3; test: as above
[8] = test system: HepG2; test: as above
[9] = test system: U2OS; test: as above
[10] = test system: Vero E6; test: as above
[11] = test system: Caco-2; test: drug sensitivity score (DSS) for viability; higher = more toxic; extreme values may be limits of the assay
[12] = test system: Calu-3; test: as above
[13] = test system: HepG2; test: as above
[14] = test system: U2OS; test: as above
[15] = test system: Vero E6; test: as above

Row | Structure (SMILES) | relative viability EC50 [1] [µM] | relative viability EC50 [2] [µM] | relative viability EC50 [3] [µM] | relative viability EC50 [4] [µM] | relative viability EC50 [5] [µM] | cell viability ([6]; 1 nM) [%] | cell viability ([6]; 10 nM) [%] | cell viability ([6]; 100 nM) [%] | cell viability ([6]; 1000 nM) [%] | cell viability ([6]; 10000 nM) [%] | cell viability ([7]; 1 nM) [%] | cell viability ([7]; 10 nM) [%] | cell viability ([7]; 100 nM) [%] | cell viability ([7]; 1000 nM) [%] | cell viability ([7]; 10000 nM) [%] | cell viability ([8]; 1 nM) [%] | cell viability ([8]; 10 nM) [%] | cell viability ([8]; 100 nM) [%] | cell viability ([8]; 1000 nM) [%] | cell viability ([8]; 10000 nM) [%] | cell viability ([9]; 1 nM) [%] | cell viability ([9]; 10 nM) [%] | cell viability ([9]; 100 nM) [%] | cell viability ([9]; 1000 nM) [%] | cell viability ([9]; 10000 nM) [%] | cell viability ([10]; 1 nM) [%] | cell viability ([10]; 10 nM) [%] | cell viability ([10]; 100 nM) [%] | cell viability ([10]; 1000 nM) [%] | cell viability ([10]; 10000 nM) [%] | drug sensitivity score [11] | drug sensitivity score [12] | drug sensitivity score [13] | drug sensitivity score [14] | drug sensitivity score [15]
1 | OC(c1ccccc1)(c1ccccc1)C1CCNCC1 [azacyclonol] | > 10 | > 10 | > 10 | > 10 | > 10 | 93.6 | 102 | 97 | 102 | 93.6 | 88.6 | 99.5 | 90 | 97 | 101 | 116 | 91.6 | 101 | 97.8 | 93 | 102 | 99.2 | 98.5 | 102 | 97.1 | 105 | 100 | 102 | 99.9 | 99.9 | 0 | 0 | 0 | 0 | 0
2 | C=C[C@]1(C)CC[C@@H](C(=C)C)C[C@H]1C(=C)C [beta-elemene] | > 10 | > 10 | > 10 | > 10 | > 10 | 95.3 | 98.6 | 97.5 | 92.6 | 102 | 106 | 98.4 | 103 | 97.2 | 102 | 95.8 | 101 | 93.2 | 106 | 103 | 102 | 98 | 97 | 96.4 | 101 | 97.4 | 97.2 | 95.7 | 97.8 | 96.6 | 0 | 0 | 0 | 0 | 0
3 | CCOc1nc2cccc(C(=O)OC(C)OC(=O)OC3CCCCC3)c2n1Cc1ccc(-c2ccccc2-c2nn[nH]n2)cc1 (stereo not given) [candesartan-cilexetil] | > 10 | > 10 | > 10 | > 10 | > 10 | 95.6 | 100 | 91.4 | 101 | 86.5 | 93.1 | 105 | 99.5 | 105 | 105 | 98.3 | 103 | 104 | 102 | 100 | 93.7 | 106 | 93.6 | 90.9 | 92.7 | 107 | 106 | 109 | 104 | 99.1 | 0.1 | 0 | 0 | 0 | 0
4 | C[C@@](Cc1ccc(O)c(O)c1)(NN)C(=O)O [carbidopa] | > 10 | > 10 | > 10 | > 10 | > 10 | 98.1 | 94.4 | 95.1 | 110 | 108 | 100 | 103 | 89.5 | 114 | 99.9 | 107 | 113 | 101 | 98.5 | 95.8 | 92.9 | 99.9 | 92.8 | 100 | 102 | 92.6 | 87.6 | 91.4 | 90.4 | 106 | 0 | 0 | 0 | 0 | 0
5 | CCCCCCCCCCCCCCCCOc1nc2ccc(C)cc2c(=O)o1 [cetilistat] | > 10 | > 10 | > 10 | > 10 | > 10 | 94.8 | 96.6 | 89.8 | 107 | 96.7 | 103 | 107 | 94.8 | 100 | 107 | 106 | 94 | 113 | 99.9 | 97.9 | 93.7 | 98.2 | 93.5 | 99.7 | 103 | 99.8 | 81.8 | 98 | 99.4 | 105 | 0 | 0 | 0 | 0 | 0
6 | O=C(O)CCC(=O)OC[C@@H](NC(=O)C(Cl)Cl)[C@H](O)c1ccc([N+](=O)[O-])cc1 [chloramphenicol-sodium-succinate] | > 10 | > 10 | > 10 | > 10 | > 10 | 103 | 95.1 | 98.2 | 100 | 103 | 108 | 97.1 | 97.3 | 91 | 106 | 105 | 114 | 88.3 | 103 | 96.3 | 100 | 96.9 | 98.1 | 99.3 | 102 | 104 | 104 | 96.5 | 102 | 97.2 | 0 | 0 | 0 | 0 | 0
7 | NCC(=O)N1C[C@H](NC(=O)c2ccccc2)C[C@H]1C(=O)O [danegaptide] | > 10 | > 10 | > 10 | > 10 | > 10 | 98.3 | 97.1 | 90.7 | 86.3 | 107 | 98.6 | 93.3 | 101 | 96.4 | 91.1 | 106 | 102 | 99.7 | 101 | 104 | 93.6 | 93.6 | 98.5 | 101 | 99.3 | 101 | 101 | 93.8 | 99.9 | 106 | 0 | 0 | 0 | 0 | 0
8 | CCCCCCCCCCOc1cc2c(O)c(C(=O)OCC)cnc2cc1OCC [decoquinate] | > 10 | > 10 | > 10 | > 10 | > 10 | 101 | 92.6 | 93.3 | 89.4 | 96.6 | 99.8 | 107 | 106 | 98.2 | 105 | 95.9 | 103 | 98.9 | 107 | 96.2 | 100 | 99.8 | 99 | 99.6 | 100 | 102 | 103 | 105 | 96.7 | 103 | 0 | 0 | 0 | 0 | 0
9 | N#CC(Cc1ccc(O)cc1)c1ccc(O)cc1 (stereo not given) [diarylpropionitrile] | > 10 | > 10 | > 10 | > 10 | > 10 | 99 | 103 | 88.4 | 100 | 95.3 | 108 | 91.2 | 100 | 94.3 | 103 | 98.7 | 90.3 | 99.6 | 89.2 | 102 | 99.6 | 99.4 | 98.7 | 102 | 102 | 99.4 | 104 | 99.1 | 102 | 94.8 | 0 | 0 | 0 | 0 | 0
10 | COc1ccc(Cc2cnc(N)nc2N)cc1OC [diaveridine] | > 10 | > 10 | > 10 | > 10 | > 10 | 96.9 | 90.4 | 100 | 93 | 96.6 | 86.6 | 94.4 | 97.7 | 84.3 | 88.9 | 95.6 | 102 | 89.2 | 95.8 | 98 | 105 | 103 | 107 | 96.7 | 102 | 99.5 | 104 | 97 | 98.2 | 94.3 | 0 | 0 | 0 | 0 | 0
11 | CCN(CC)C(=O)N1CCN(C)CC1 [diethylcarbamazine] | > 10 | > 10 | > 10 | > 10 | > 10 | 98.2 | 95.4 | 97.2 | 88.5 | 99.9 | 102 | 91.4 | 103 | 103 | 102 | 88.1 | 100 | 105 | 101 | 107 | 103 | 97.8 | 102 | 91.4 | 98.1 | 103 | 97.5 | 102 | 103 | 99.3 | 0 | 0 | 0 | 0 | 0
12 | C[C@]12CC[C@H](O)C[C@H]1CC[C@@H]1[C@@H]2CC[C@]2(C)[C@@H](C3=CC(=O)OC3)CC[C@]12O [digitoxigenin] | 0.18 | 0.849 | 0.605 | 0.435 | 0.0448 | 78.9 | 84.9 | 84.1 | 36 | 42.3 | 97.7 | 93.4 | 104 | 50.5 | 17.7 | 118 | 117 | 94.5 | 39.2 | 12.2 | 105 | 105 | 101 | 16.4 | 6.9 | 108 | 97.3 | 13.2 | 0.7 | 0.6 | 13.5 | 10.5 | 12.4 | 15.2 | 28.4
13 | C[C@]12CC[C@H](O)C[C@H]1CC[C@@H]1[C@@H]2C[C@@H](O)[C@]2(C)[C@@H](C3=CC(=O)OC3)CC[C@]12O [digoxigenin] | 1.28 | 2.19 | 0.52 | 1.14 | 0.163 | 92.9 | 106 | 114 | 80.5 | 44.6 | 99.8 | 111 | 101 | 91.6 | 29 | 100 | 109 | 89.1 | 39.5 | 12.6 | 96.9 | 105 | 92.3 | 58.4 | 5.8 | 107 | 108 | 77.4 | 1.3 | 1.1 | 5.7 | 5.3 | 12.8 | 10 | 21.4
14 | OCCN(CCO)c1nc(N2CCCCC2)c2nc(N(CCO)CCO)nc(N3CCCCC3)c2n1 [dipyridamole] | > 10 | > 10 | > 10 | > 10 | > 10 | 114 | 98.9 | 102 | 96.2 | 87.1 | 99.1 | 103 | 112 | 96.4 | 104 | 94.2 | 101 | 96.6 | 100 | 96.7 | 103 | 99.2 | 101 | 102 | 99.8 | 104 | 90.1 | 108 | 95 | 95.3 | 0.3 | 0 | 0 | 0 | 0
